Read-outs that look alike come from different tables or passages of the source.
Columns and labels:
E. coli GC 2236 = assay: MIC, broth microdilution; conditions: Escherichia coli
E. coli GC 2231 = assay: MIC, broth microdilution; conditions: Escherichia coli
E. coli GC 2232 = assay: MIC, broth microdilution; conditions: Escherichia coli
E. coli GC 2233 = assay: MIC, broth microdilution; conditions: Escherichia coli
E. coli GC 2234 = assay: MIC, broth microdilution; conditions: Escherichia coli
E. coli GC 2270 = assay: MIC, broth microdilution; conditions: Escherichia coli
E. coli GC 2271 = assay: MIC, broth microdilution; conditions: Escherichia coli
E. coli GC 3226 = assay: MIC, broth microdilution; conditions: Escherichia coli
E. coli GC 2203 = assay: MIC, broth microdilution; conditions: Escherichia coli
P. aeruginosa GC 2214 = assay: MIC, broth microdilution; conditions: Pseudomonas aeruginosa
S. aureus GC 6466 = assay: MIC, broth microdilution; conditions: Staphylococcus aureus
S. aureus GC 2216 = assay: MIC, broth microdilution; conditions: Staphylococcus aureus
S. aureus GC 6335 = assay: MIC, broth microdilution; conditions: Staphylococcus aureus
Method: Antimicrobial susceptibility testing. The in vitro activities of the antibiotics are determined by the broth microdilution method as recommended by the National Committee for Clinical Laboratory Standards (NCCLS) (1). Mueller-Hinton II broth (MHBII)(BBL Cockeysville, Md.) is the medium employed in the testing procedures. Microtiter plates containing serial dilutions of each antimicrobial agent are inoculated with each organism to yield the appropriate density (10^5 CFU/ml) in a 100 μl final volume. The plates are incubated for 18-22 hours at 35° C. in ambient air.
Representative compounds were first incubated in mouse serum for an hour prior to the in vitro testing against a panel of selected gram-positive and gram-negative bacteria strains. All compounds were also pre-incubated in water for an hour prior to testing as control. Representative compounds of Formula I were incubated in human serum prior to MIC determination.

S. aureus GC 6469 = assay: MIC, broth microdilution; conditions: Staphylococcus aureus
E. faecalis GC 2265 = assay: MIC, broth microdilution; conditions: Enterococcus faecalis
E. faecium GC 4556 = assay: MIC, broth microdilution; conditions: Enterococcus faecium
E. faecium GC 2243 = assay: MIC, broth microdilution; conditions: Enterococcus faecium
S. pyogenes GC 4563 = assay: MIC, broth microdilution; conditions: Streptococcus pyogenes
E. coli = assay: Range of MIC for E. coli strains; conditions: Escherichia coli
Staph. = assay: Range of MIC for Staph. strains, including MRSA; conditions: Staphylococcus aureus, MRSA
[1] = 20 h, read-out: Range of MIC, E. coli (Mouse Serum)
[2] = read-out: Range of MIC, E. coli (Water)
[3] = read-out: Range of MIC, Staph (Mouse Serum)
[4] = GC2236, E. coli GC 2236, Mouse Serum pre-incubation
[5] = GC2236, E. coli GC 2236, Water pre-incubation
[6] = GC2231, E. coli GC 2231, Mouse Serum pre-incubation
[7] = GC2231, E. coli GC 2231, Water pre-incubation
[8] = GC2232, E. coli GC 2232, Mouse Serum pre-incubation
[9] = GC2232, E. coli GC 2232, Water pre-incubation
[10] = GC2233, E. coli GC 2233, Mouse Serum pre-incubation
[11] = GC2233, E. coli GC 2233, Water pre-incubation
[12] = GC2234, E. coli GC 2234, Mouse Serum pre-incubation
[13] = GC2234, E. coli GC 2234, Water pre-incubation
[14] = GC2270, E. coli GC 2270, Mouse Serum pre-incubation
[15] = GC2270, E. coli GC 2270, Water pre-incubation
[16] = GC2271, E. coli GC 2271, Mouse Serum pre-incubation
[17] = GC2271, E. coli GC 2271, Water pre-incubation
[18] = GC3226, E. coli GC 3226, Mouse Serum pre-incubation
[19] = GC3226, E. coli GC 3226, Water pre-incubation
[20] = GC2203, E. coli GC 2203, Mouse Serum pre-incubation
[21] = GC2203, E. coli GC 2203, Water pre-incubation
[22] = GC2214, P. aeruginosa GC 2214, Mouse Serum pre-incubation
[23] = GC2214, P. aeruginosa GC 2214, Water pre-incubation
[24] = GC6466, S. aureus GC 6466, Mouse Serum pre-incubation
[25] = GC6466, S. aureus GC 6466, Water pre-incubation
[26] = GC2216, S. aureus GC 2216, Mouse Serum pre-incubation
[27] = GC2216, S. aureus GC 2216, Water pre-incubation
[28] = GC6335, S. aureus GC 6335, Mouse Serum pre-incubation
[29] = GC6335, S. aureus GC 6335, Water pre-incubation
[30] = GC6469, S. aureus GC 6469, Mouse Serum pre-incubation
[31] = GC6469, S. aureus GC 6469, Water pre-incubation
[32] = GC2265, E. faecalis GC 2265, Mouse Serum pre-incubation
[33] = GC2265, E. faecalis GC 2265, Water pre-incubation
[34] = GC4556, E. faecium GC 4556, Mouse Serum pre-incubation
[35] = GC4556, E. faecium GC 4556, Water pre-incubation
[36] = GC2243, E. faecium GC 2243, Mouse Serum pre-incubation
[37] = GC2243, E. faecium GC 2243, Water pre-incubation
[38] = GC4563, S. pyogenes GC 4563, Mouse Serum pre-incubation
[39] = GC4563, S. pyogenes GC 4563, Water pre-incubation
[40] = read-out: Minimum inhibitory concentration (MIC), E. coli (mouse serum)
[41] = read-out: Minimum inhibitory concentration (MIC), E. coli (water)
[42] = read-out: Minimum inhibitory concentration (MIC), Staph. (mouse serum)
[43] = read-out: Minimum inhibitory concentration (MIC), Staph. (water)
[44] = read-out: Range of MIC, Staph (Water)

Measured: MIC

CCCN(CC(=O)Nc1cc(N(C)C)c2c(c1O)C(=O)C1=C(O)[C@]3(O)C(=O)C(C(N)=O)=C(O)C(N(C)C)C3CC1C2)C(=O)OCc1oc(=O)oc1-c1ccccc1 (stereo in doubt) [Example 110, (2-oxo-5-phenyl-1,3-dioxol-4-yl)methyl 2-{[(7R,10aS)-9-(aminocarbonyl)-4,7-bis(dimethylamino)-1,8,10a,11-tetrahydroxy-10,12-dioxo-5,5a,6,6a,7,10,10a,12-octahydrotetracen-2-yl]amino}-2-oxoethyl(propyl)carbamate]
0.5 µg/mL: E. coli GC 2233; GC2233, pre-incubation in mouse serum | E. faecium GC 2243; GC2243, pre-incubation in mouse serum | E. faecium GC 2243; GC2243, pre-incubation in water
0.5 to 4 µg/mL: E. coli; [1]
> 64 µg/mL: P. aeruginosa GC 2214; GC2214, pre-incubation in mouse serum | P. aeruginosa GC 2214; GC2214, pre-incubation in water
1 to 8 µg/mL: E. coli; [2]
4 µg/mL: E. coli GC 2231; GC2231, pre-incubation in mouse serum | E. coli GC 3226; GC3226, pre-incubation in water | E. coli GC 2203; GC2203, pre-incubation in water | S. aureus GC 2216; GC2216, pre-incubation in water | E. faecalis GC 2265; GC2265, pre-incubation in water
1 to 32 µg/mL: Staph.; [3]
2 µg/mL: E. coli GC 2236; GC2236, pre-incubation in water | E. coli GC 2232; GC2232, pre-incubation in water | E. coli GC 2234; GC2234, pre-incubation in water | E. coli GC 2271; GC2271, pre-incubation in water | E. coli GC 3226; GC3226, pre-incubation in mouse serum | S. aureus GC 6466; GC6466, pre-incubation in water | S. aureus GC 2216; GC2216, pre-incubation in mouse serum | E. faecium GC 4556; GC4556, pre-incubation in water
0.12 µg/mL: S. pyogenes GC 4563; GC4563, pre-incubation in mouse serum
< 0.06 µg/mL: S. pyogenes GC 4563; GC4563, pre-incubation in water
32 µg/mL: S. aureus GC 6469; GC6469, pre-incubation in mouse serum | S. aureus GC 6469; GC6469, pre-incubation in water
1 µg/mL: E. coli GC 2236; GC2236, pre-incubation in mouse serum | E. coli GC 2232; GC2232, pre-incubation in mouse serum | E. coli GC 2233; GC2233, pre-incubation in water | E. coli GC 2234; GC2234, pre-incubation in mouse serum | E. coli GC 2270; GC2270, pre-incubation in mouse serum | E. coli GC 2270; GC2270, pre-incubation in water | E. coli GC 2271; GC2271, pre-incubation in mouse serum | E. coli GC 2203; GC2203, pre-incubation in mouse serum | S. aureus GC 6466; GC6466, pre-incubation in mouse serum | E. faecium GC 4556; GC4556, pre-incubation in mouse serum
8 µg/mL: E. coli GC 2231; GC2231, pre-incubation in water | S. aureus GC 6335; GC6335, pre-incubation in mouse serum | S. aureus GC 6335; GC6335, pre-incubation in water | E. faecalis GC 2265; GC2265, pre-incubation in mouse serum

CCCCN(CC(=O)Nc1cc(N(C)C)c2c(c1O)C(=O)C1=C(O)[C@]3(O)C(=O)C(C(N)=O)=C(O)[C@@H](N(C)C)C3CC1C2)C(=O)OCOC(=O)C(C)C (stereo partly drawn) [Example 1, ({[(2-{[(7S,10aS)-9-(aminocarbonyl)-4,7-bis(dimethylamino)-1,8,10a,11-tetrahydroxy-10,12-dioxo-5,5a,6,6a,7,10,10a,12-octahydrotetracen-2-yl]amino}-2-oxoethyl)(butyl)amino]carbonyl}oxy)methyl 2-methylpropanoate]
0.5 µg/mL: E. coli GC 2232; [8] | E. coli GC 2234; [12] | E. coli GC 2270; [14] | E. coli GC 2271; [16] | E. coli GC 2203; [20] | S. pyogenes GC 4563; [39]
8 µg/mL: S. aureus GC 6469; [31]
1 µg/mL: E. coli GC 2236; [4] | E. coli GC 2231; [6] | E. coli GC 2233; [10] | E. coli GC 3226; [18] | S. aureus GC 6466; [24] | S. aureus GC 6466; [25] | S. aureus GC 2216; [26] | E. faecalis GC 2265; [32] | E. faecium GC 4556; [34] | E. faecium GC 2243; [36]
> 64 µg/mL: P. aeruginosa GC 2214; [23]
2 µg/mL: S. aureus GC 6335; [28] | S. aureus GC 6469; [30] | E. faecium GC 2243; [37]
16 to 64 µg/mL: E. coli; [41] | E. coli; [2]
0.5 to 1 µg/mL: E. coli; [1] | E. coli; [40]
4 µg/mL: S. aureus GC 2216; [27] | S. aureus GC 6335; [29] | E. faecalis GC 2265; [33] | E. faecium GC 4556; [35]
1 to 8 µg/mL: Staph.; [43] | Staph.; [44]
0.25 µg/mL: S. pyogenes GC 4563; [38]
1 to 4 µg/mL: Staph.; [42] | Staph.; [3]
16 µg/mL: E. coli GC 2236; [5] | E. coli GC 2232; [9] | E. coli GC 2233; [11] | E. coli GC 2234; [13] | E. coli GC 2270; [15] | E. coli GC 2271; [17] | E. coli GC 2203; [21]
64 µg/mL: E. coli GC 2231; [7]
32 µg/mL: E. coli GC 3226; [19] | P. aeruginosa GC 2214; [22]

CCCCN(CC(=O)Nc1cc(N(C)C)c2c(c1O)C(=O)C1=C(O)[C@]3(O)C(=O)C(C(N)=O)=C(O)[C@@H](N(C)C)C3CC1C2)C(=O)OCOC(=O)c1ccc(OC)cc1 (stereo partly drawn) [Example 2, ({[(2-{[(7S,10aS)-9-(aminocarbonyl)-4,7-bis(dimethylamino)-1,8,10a,11-tetrahydroxy-10,12-dioxo-5,5a,6,6a,7,10,10a,12-octahydrotetracen-2-yl]amino}-2-oxoethyl)(butyl)amino]carbonyl}oxy)methyl 4-methoxybenzoate]
2 to 8 µg/mL: Staph.; [43] | Staph.; [44]
0.25 µg/mL: S. pyogenes GC 4563; [38] | S. pyogenes GC 4563; [39]
> 64 µg/mL: P. aeruginosa GC 2214; [22] | P. aeruginosa GC 2214; [23]
64 µg/mL: E. coli GC 2231; [7] | E. coli GC 2232; [9] | E. coli GC 2233; [11] | E. coli GC 2234; [13] | E. coli GC 2270; [15] | E. coli GC 2271; [17] | E. coli GC 3226; [19] | E. coli GC 2203; [21]
1 to 8 µg/mL: Staph.; [42] | Staph.; [3]
8 µg/mL: S. aureus GC 6335; [28] | S. aureus GC 6335; [29] | E. faecalis GC 2265; [33] | E. faecium GC 4556; [35]
4 µg/mL: E. coli GC 2236; [4] | E. coli GC 2231; [6] | E. coli GC 3226; [18] | S. aureus GC 2216; [27] | S. aureus GC 6469; [31] | E. faecalis GC 2265; [32] | E. faecium GC 4556; [34] | E. faecium GC 2243; [37]
1 to 4 µg/mL: E. coli; [1] | E. coli; [40]
32 µg/mL: E. coli GC 2236; [5]
1 µg/mL: E. coli GC 2233; [10] | E. coli GC 2234; [12] | E. coli GC 2270; [14] | E. coli GC 2271; [16] | S. aureus GC 6466; [24] | E. faecium GC 2243; [36]
2 µg/mL: E. coli GC 2232; [8] | E. coli GC 2203; [20] | S. aureus GC 6466; [25] | S. aureus GC 2216; [26] | S. aureus GC 6469; [30]
32 to 64 µg/mL: E. coli; [41] | E. coli; [2]

Source: patent US20070049564A1 (Wyeth, priority 2005, published 2007)
